Assay results: patent publication US11478505B2, “Compositions of ixabepilone” (R-Pharm US Operating LLC, priority 2020, dated 2022)

How the values were obtained:
[1] = system: A549 Human Lung Carcinoma; assay: cytotoxicity, cell viability count after 96 h of treatment; type: cell-based; conditions: 20 nM, trypan blue
Method: (§1) After 96 hours of treatment, cells were counted for viability.
(§2) Materials and Equipment: Eagle's Minimum Essential Media (ATCC No. 30-2003); F-12K Media (ATCC No. 30-2008); Fetal Bovine Serum (ATCC No. 30-2020); Penicillin/Streptomycin (Thermo Fisher No. 15-140-122); Human Recombinant Insulin 0.01 mg/mL (Sigma No. 19278); Trypsin (ATCC No. 25-200-072); Phosphate Buffered Saline (Corning from Thermo Fisher No. 21040CM); Hemocytometer (Hausser from Fischer No. 02-671-6); Trypan blue (Gibco No. 15250061); p100 tissue culture dishes (Falcon-Corning No. 08-772E). Ixabepilone (Lot 3L7304N) was provided by R-Pharm US. […] Saline control was phosphate-buffered 150 mM NaCl solution.
(§3) Cells were rapidly thawed in a water bath at 37° C. and resuspended in appropriate media before being transferred to 60 mm or 100 mm tissue culture dishes. A549 cells were maintained in F12-K media, supplemented with 10% fetal bovine serum, and 1% penicillin/streptomycin. MCF7 cells were maintained in Eagle's Minimum Essential media, supplemented with 10% fetal bovine serum, 1% penicillin/streptomycin, and 0.01 mg/mL insulin. All cells were passaged at least three times before treatment. […] Saline was administered at the equivalent volume used for the ixabepilone treatment for each respective cell line. At 96 h, cells were trypsinized and harvested and counted with trypan blue on a hemocytometer.

[2] = system: MCF7 Human Breast Adenocarcinoma; assay: as above; type: cell-based; conditions: 40 nM, trypan blue
Method: as §1, §2, §3

[3] = cited from earlier work

C/C(=C\c1csc(C)n1)[C@@H]1C[C@@H]2O[C@]2(C)CCC[C@H](C)[C@H](O)[C@@H](C)C(=O)C(C)(C)[C@@H](O)CC(=O)N1 [ixabepilone, (1S,3S,7S,10R,11S,12S,16R)-7,11dihydroxy-8,8,10,12,16-pentamethyl-3-[(1E)-1-methyl-2-(2-methyl-4-thiazolyl)ethenyl]17-oxa-4-azabicyclo[14.1.0] heptadecane-5,9-dione]
average cell viability count [1]: 106×10^4 | average cell viability count [2]: 70×10^4 | tolerability ([3]; doses of 0.1, 1.0 or 2.0 mg/kg, weekly IV, 5 doses): generally well tolerated | no observed adverse effect level (NOAEL) ([3]; weekly intravenous dosing for one month (5 doses)): 0.1 mg/kg
